The text below walks through data of US8309586B2, “Glucokinase activators and pharmaceutical compositions containing the same as an active ingredient” (LG Life Sciences Ltd., priority 2007, dated 2012).

SMILES strings stand for the structures.

The test system of the assay is Glucokinase known as hexokinase IV (human GK isoform 1, pancreas form and human GK isoform 2, liver form). As to the kind of experiment: Glucokinase enzymatic activity assay (G6PDH-coupled, NADH absorbance at 340 nm). In kind it is biochemical. To be noted: 5 mM glucose, 1 mM ATP, 37 nM GK, 10 min at room temperature. The protocol:
Glucokinase known as hexokinase IV (human GK isoform 1, pancreas form and human GK isoform 2, liver form) was cloned into an expression vector pET15 fx (Novagen Co.), transformed to E. coli BL21 (DE3) (Invitrogen Co.) strain, expressed, and purified using a nickel column. Then, the glucokinase obtained from dialysis was used in the following assay.
Glucokinase assay was performed by measuring absorbance according to the conventional manner. Briefly speaking, glucokinase converts the substrate glucose to glucose-6-phosphate under certain conditions, and glucose-6-phosphate dehydrogenase irreversibly converts glucose-6-phosphate to gluconate-6-phosphate. During this procedure, NADH is formed, and its absorbance is measured to calculate the enzymatic activity.
In the measurement of the enzymatic activity, each compound was diluted by two-fold from the maximum to the minimum concentrations, and 2 μl of each solution was added to 96 well UV plate (BD bioscience). 60 μl of the first mixture (final concentrations 25 mM Hepes, 25 mM KCl, 2 mM MgCl2, 1 mM DTT) was added, and thoroughly mixed. 38 μl of the enzyme mixture (final concentrations 1 mM ATP, 1 mM NAD, 5 mM glucose, 0.85U G6PDH, 37 nM GK) was added (final volume 100 μl), and the mixture was reacted for 10 min at room temperature. The absorbance of NADH was measured at 340 nm using a UV spectrometer (Molecular Device).
The enzyme activating abilities of the compounds according to the present invention are represented as AC1.5 (the compound concentration at which the enzymatic activity is increased by 1.5 times, nM), which is in the range of 0.001 uM to 30 uM or less, preferably 0.001 uM to 10 uM, more preferably 0.001 uM to 1 uM.
For `c1cc(NC2CCCC2)c2[nH]c(C3=N[C@H](CN4CCOCC4)CS3)cc2c1` [Example 16, cyclopentyl-[2-((R)-4-morpholin-4-ylmethyl-4,5-dihydro-thiazol-2-yl)-1H-indol-7-yl]-amine], the “AC1.5 (the compound concentration at which the enzymatic activity is increased by 1.5 times)” value is 64 nM.

`OC[C@@H]1CSC(c2cc3cc(Cn4cccn4)cc(NC4CCCC4)c3[nH]2)=N1` [Example 21, [(R)-2-[7-cyclopentylamino-5-pyrazol-1-ylmethyl-1H-indol-2-yl]-4,5-dihydro-thiazol-4-yl}-methanol]: the “AC1.5 (the compound concentration at which the enzymatic activity is increased by 1.5 times)” value was found to be 16 nM. Take `OC[C@@H]1CSC(c2cc3cc(Cn4ccnc4)cc(NC4CCCC4)c3[nH]2)=N1` [Example 22, [(R)-2-(7-cyclopentylamino-5-imidazol-1-ylmethyl-1H-indol-2-yl)-4,5-dihydro-thiazol-4-yl}-methanol]: the “AC1.5 (the compound concentration at which the enzymatic activity is increased by 1.5 times)” value is 112 nM. Regarding `OC[C@@H]1CSC(c2cc3cc(Cc4cc[nH]c4)cc(NC4CCCC4)c3[nH]2)=N1` [Example 23, {(R)-2-[7-cyclopentylamino-5-(1H-pyrrol-3-ylmethyl)-1H-indol-2-yl]-4,5-dihydro-thiazol-4-yl}-methanol], the “AC1.5 (the compound concentration at which the enzymatic activity is increased by 1.5 times)” value is on record as 19 nM. As to `CS(=O)(=O)Cc1cc(NC2CCCC2)c2[nH]c(C3=N[C@H](CO)CS3)cc2c1` [Example 24, [(R)-2-(7-cyclopentylamino-5-methanesulfonylmethyl-1H-indol-2-yl)-4,5-dihydro-thiazol-4-yl]-methanol], the “AC1.5 (the compound concentration at which the enzymatic activity is increased by 1.5 times)” value stood at 32 nM. Take `COC(=O)C[C@@H]1CSC(c2cc3cc(Cl)cc(NC4CCCC4)c3[nH]2)=N1` [Example 26, [(R)-2-(5-chloro-7-cyclopentylamino-1H-indol-2-yl)-4,5-dihydro-thiazol-4-yl]acetic acid methyl ester]: the “AC1.5 (the compound concentration at which the enzymatic activity is increased by 1.5 times)” value worked out at 7 nM. As for `CCOC(=O)C[C@@H]1CSC(c2cc3cc(Cl)cc(NC4CCCC4)c3[nH]2)=N1` [Example 28, [(R)-2-(5-chloro-7-cyclopentylamino-1H-indol-2-yl)-4,5-dihydro-thiazol-4-yl]acetic acid ethyl ester], the figure is 8 nM; as for `COC(=O)C[C@@H]1CSC(c2cc3cc(Cl)cc(NC4CCOCC4)c3[nH]2)=N1` [Example 30, {(R)-2-[5-chloro-7-(tetrahydro-pyran-4-ylamino)-1H-indol-2-yl]-4,5-dihydro-thiazol-4-yl}acetic acid methyl ester], 28 nM; as for `O=C(O)C[C@@H]1CSC(c2cc3cc(Cl)cc(NC4CCOCC4)c3[nH]2)=N1` [Example 31, {(R)-2-[5-chloro-7-(tetrahydro-pyran-4-ylamino)-1H-indol-2-yl]-4,5-dihydro-thiazol-4-yl}-acetic acid], 16 nM. As for `OCC[C@@H]1CSC(c2cc3cc(Br)cc(NC4CCCC4)c3[nH]2)=N1` [Example 34, 2-[(R)-2-(5-bromo-7-cyclopentylamino-1H-indol-2-yl)-4,5-dihydro-1,3-thiazol-4-yl]-ethanol], the “AC1.5 (the compound concentration at which the enzymatic activity is increased by 1.5 times)” value came out at 11 nM. With `O=C(O)C[C@@H]1CSC(c2cc3cc(Br)cc(NC4CCOCC4)c3[nH]2)=N1` [Example 35, {(R)-2-[5-bromo-7-(tetrahydro-pyran-4-ylamino)-1H-indol-2-yl]-4,5-dihydro-thiazol-4-yl}-acetic acid], the “AC1.5 (the compound concentration at which the enzymatic activity is increased by 1.5 times)” value was determined as 6 nM. In the case of `OCC[C@@H]1CSC(c2cc3cc(F)cc(NC4CCCC4)c3[nH]2)=N1` [Example 39, 2-[(R)-2-(7-cyclopentylamino-5-fluoro-1H-indol-2-yl)-4,5-dihydro-thiazol-4-yl]-ethanol], the “AC1.5 (the compound concentration at which the enzymatic activity is increased by 1.5 times)” value came out at 6 nM.

Regarding `OCC[C@@H]1CSC(c2cc3cc(F)cc(NC4CCOCC4)c3[nH]2)=N1` [Example 41, 2-{(R)-2-[5-fluoro-7-(tetrahydro-pyran-4-ylamino)-1H-indol-2-yl]-4,5-dihydro-thiazol-4-yl}-ethanol], the “AC1.5 (the compound concentration at which the enzymatic activity is increased by 1.5 times)” value is given as 17 nM.

Take `OCC[C@@H]1CSC(c2cc3cccc(NC4CCOCC4)c3[nH]2)=N1` [Example 46, 2-{(R)-2-[7-(tetrahydro-pyran-4-ylamino)-1H-indol-2-yl]-4,5-dihydro-thiazol-4-yl}-ethanol]: the “AC1.5 (the compound concentration at which the enzymatic activity is increased by 1.5 times)” value was found to be 96 nM.

Turning to `COC(=O)C[C@@H]1CSC(c2cc3cc(OC)cc(NC4CCCC4)c3[nH]2)=N1` [Example 47, [(R)-2-(7-cyclopentylamino-5-methoxy-1H-indol-2-yl)-4,5-dihydro-thiazol-4-yl]-acetic acid methyl ester], the “AC1.5 (the compound concentration at which the enzymatic activity is increased by 1.5 times)” value stood at 27 nM. Regarding `COc1cc(NC2CCCC2)c2[nH]c(C3=N[C@H](CC(=O)O)CS3)cc2c1` [Example 48, [(R)-2-(7-cyclopentylamino-5-methoxy-1H-indol-2-yl)-4,5-dihydro-thiazol-4-yl]-acetic acid], the “AC1.5 (the compound concentration at which the enzymatic activity is increased by 1.5 times)” value was 9 nM. As for `CCOC(=O)C[C@@H]1CSC(c2cc3cc(OC)cc(NC4CCCC4)c3[nH]2)=N1` [Example 49, [(R)-2-(7-cyclopentylamino-5-methoxy-1H-indol-2-yl)-4,5-dihydro-thiazol-4-yl]-acetic acid ethyl ester], the figure is 35 nM. Take `COC(=O)C[C@@H]1CSC(c2cc3cc(OC)cc(NC4CCOCC4)c3[nH]2)=N1` [Example 50, {(R)-2-[5-methoxy-7-(tetrahydro-pyran-4-ylamino)-1H-indol-2-yl]-4,5-dihydro-thiazol-4-yl}-acetic acid methyl ester]: the “AC1.5 (the compound concentration at which the enzymatic activity is increased by 1.5 times)” value was found to be 28 nM.

For the compound `COc1cc(NC2CCOCC2)c2[nH]c(C3=N[C@H](CC(=O)O)CS3)cc2c1` [Example 51, {(R)-2-[5-methoxy-7-(tetrahydro-pyran-4-ylamino)-1H-indol-2-yl]-4,5-dihydro-thiazol-4-yl}-acetic acid], the “AC1.5 (the compound concentration at which the enzymatic activity is increased by 1.5 times)” value was 167 nM. For `CCCOc1cc(NC2CCCC2)c2[nH]c(C3=N[C@H](CC(=O)O)CS3)cc2c1` [Example 53, [(R)-2-(7-cyclopentylamino-5-propoxy-1H-indol-2-yl)-4,5-dihydro-thiazol-4-yl]-acetic acid], the “AC1.5 (the compound concentration at which the enzymatic activity is increased by 1.5 times)” value is 97 nM.

With `O=C(O)C[C@@H]1CSC(c2cc3cc(Oc4ccccc4)cc(NC4CCOCC4)c3[nH]2)=N1` [Example 55, {(R)-2-[5-phenoxy-7-(tetrahydro-pyran-4-ylamino)-1H-indol-2-yl]-4,5-dihydro-thiazol-4-yl}-acetic acid], the “AC1.5 (the compound concentration at which the enzymatic activity is increased by 1.5 times)” value was determined as 29 nM.

Turning to `COC(=O)C[C@@H]1CSC(c2cc3cc(Oc4cccnc4)cc(NC4CCCC4)c3[nH]2)=N1` [Example 56, {(R)-2-[7-cyclopentylamino-5-(pyridin-3-yloxy)-1H-indol-2-yl]-4,5-dihydro-thiazol-4-yl}-acetic acid methyl ester], the “AC1.5 (the compound concentration at which the enzymatic activity is increased by 1.5 times)” value worked out at 17 nM. Regarding `O=C(O)C[C@@H]1CSC(c2cc3cc(Oc4cccnc4)cc(NC4CCCC4)c3[nH]2)=N1` [Example 57, {(R)-2-[7-cyclopentylamino-5-(pyridin-3-yloxy)-1H-indol-2-yl]-4,5-dihydro-thiazol-4-yl}-acetic acid], the “AC1.5 (the compound concentration at which the enzymatic activity is increased by 1.5 times)” value came out at 21 nM.

Turning to `COC(=O)C[C@@H]1CSC(c2cc3cc(Oc4cccnc4)cc(NC4CCOCC4)c3[nH]2)=N1` [Example 58, {(R)-2-[5-(pyridin-3-yloxy)-7-(tetrahydro-pyran-4-ylamino)-1H-indol-2-yl]-4,5-dihydro-thiazol-4-yl}-acetic acid methyl ester], the “AC1.5 (the compound concentration at which the enzymatic activity is increased by 1.5 times)” value amounted to 14 nM. For the compound `O=C(O)C[C@@H]1CSC(c2cc3cc(Oc4cccnc4)cc(NC4CCOCC4)c3[nH]2)=N1` [Example 59, {(R)-2-[5-(pyridin-3-yloxy)-7-(tetrahydro-pyran-4-ylamino)-1H-indol-2-yl]-4,5-dihydro-thiazol-4-yl}-acetic acid], the “AC1.5 (the compound concentration at which the enzymatic activity is increased by 1.5 times)” value was found to be 28 nM. Turning to `COC(=O)C[C@@H]1CSC(c2cc3cc(C)cc(NC4CCCC4)c3[nH]2)=N1` [Example 60, [(R)-2-(7-cyclopentylamino-5-methyl-1H-indol-2-yl)-4,5-dihydro-thiazol-4-yl]acetic acid methyl ester], the “AC1.5 (the compound concentration at which the enzymatic activity is increased by 1.5 times)” value is reported as 29 nM.

On to `Cc1cc(NC2CCOCC2)c2[nH]c(C3=N[C@H](CC(=O)O)CS3)cc2c1` [Example 62, {(R)-2-[5-methyl-7-(tetrahydro-pyran-4-ylamino)-1H-indol-2-yl]-4,5-dihydro-thiazol-4-yl}-acetic acid], for which the “AC1.5 (the compound concentration at which the enzymatic activity is increased by 1.5 times)” value stood at 36 nM.
